According to patent US20040204488A1, “S-[2-[(1-Iminoethyl)amino]ethyl]-2-methyl-L-cysteine maleate crystalline salt” (priority 2003, published 2004):

Assays:
Assay type in all cases: physicochemical
physchem [1] = settings: water
Moisture sorption = settings: 90% R.H. and 25° C.
Text: The novel salt is characterized by some or all of the following physical measurements: elemental analysis (such as by combustion analysis), melting point and heat of fusion (differential scanning calorimetry and thermogravimetric analysis), refractive indices (polarized light microscopy), x-ray powder diffraction pattern, moisture sorption (for example, DVS moisture balance) and vibrational signature (Raman spectrum).
FIG. 12 is a plot of a moisture sorption study of S-[2-[(1-Iminoethyl)amino]ethyl]-2-methyl-L-cysteine maleate.

physchem [2] = settings: pKa of amidine ion
Text: The parent S-[2-[(1-Iminoethyl)amino]ethyl]-2-methyl-L-cysteine molecule has 3 ionizable groups and can exist in 4 ionization states.
At low pH, the molecule exists as a +2 charged free acid, with the carboxylic acid, amine and amidine moieties protonated. This is the ionization state for the dihydrochloride salt. The initial lots of S-[2-[(1-Iminoethyl)amino]ethyl]-2-methyl-L-cysteine (dihydrochloride) contained around 0.3 eq of excess HCl.
As the pH is increased, the carboxylic acid group is the first group to deprotonate, and this produces a net charge on the molecule of +1. If the pH increase is generated by addition of sodium hydroxide to S-[2-[(1-Iminoethyl)amino]ethyl]-2-methyl-L-cysteine, the sodium dihydrochloride salt is formed. If the increase in pH is due to removal of chloride ions by anion exchange processing, the product is the monohydrochloride salt with no sodium.
A positive charge still resides on the amidine, and a negative charge still resides on the carboxyl group. If such material is made by the addition of sodium hydroxide to the dihydrochloride, the resulting product is the monohydrochloro sodium salt, mixed with one equivalent of sodium chloride. The material prepared by the anion exchange resin approach is the free zwitterion.
Further increases in pH lead to deprotonation of the amidine ion (pKa ˜12.5). […]

[3] = Pseudo-titration in water with IRA-400(OH) anion exchange resin (pH vs resin added)
Protocol: 60 g of Amberlite IRA400 (OH) resin was prewashed with 4.7 percent (by weight) ammonium hydroxide (50 ml of 28 percent ammonium hydroxide, 250 ml deionized water), followed by extensive washing with deionized water. The final conductivity was 6.1 μS.
(§1) Cation exchange column cuts containing approximately 0.9 g of S-[2-[(1-Iminoethyl)amino]ethyl]-2-methyl-L-cysteine di-hydrochloride in 142 ml HCl/water solution, were concentrated on a rotary evaporator at 60° C. to an oil. To the oil, diluted to 60 ml with deionized water, was added aliquots of 0.5 g of washed anion exchange resin while stirring. At five minutes after each aliquot of resin was added, the solution pH was measured and a sample removed through a syringe filter. A total of 9 g of anion exchange resin was added. The final pH was 10.8. The resin was removed by filtration and the filtrate was concentrated to an oil by rotary evaporation at 60° C.; no solids formed. The starting material, final filtrate and all intermediate samples were assayed by HPLC and ion chromatography for chloride.
The diamond (solid line) is pH and square (dashed line) is S-[2-[(1-Iminoethyl)amino]ethyl]-2-methyl-L-cysteine (percent initial, by ion chromatography). […] The diamond (solid line) is pH and triangle (broken line) is chloride (by ion chromatography).
These curves are not true titration curves since samples were withdrawn during the progress of the reaction, and since true equilibrium was not attained before the increments of resin were added. Nevertheless, the graphs of FIG. 2 and FIG. 3 illustrate the expected trends. As resin is added to the S-[2-[(1-Iminoethyl)amino]ethyl]-2-methyl-L-cysteine solution the pH rises with change in slope around pH's of 2, 9 and 11. The pH's of slower rise are representative of the pK's of the carboxylic acid, amine and amidine functional groups, respectively. Above a pH of 10, the S-[2-[(1-Iminoethyl)amino]ethyl]-2-methyl-L-cysteine concentration in solution decreases. At this point, the S-[2-[(1-Iminoethyl)amino]ethyl]-2-methyl-L-cysteine is gaining a net negative charge and is binding to the resin. […]

[4] = Solution stability of anion-exchange titration samples by HPLC (Example 8); settings: fractions of resin titration
Protocol: as §1
3.3 g a sample containing about 1 g of S-[2-[(1-Iminoethyl)amino]ethyl]-2-methyl-L-cysteine di-hydrochloride was diluted to 20 g. Aliquots of prewashed Amberlite IRA400 (OH) resin was added to the solution and samples were periodically withdrawn through a syringe filter. […] The starting materials, intermediate samples and final filtrate were analyzed. […] Samples were drawn at pH of 8.13 and 1.63 and analyzed by HPLC.
In the repeat of the above experiment, the resulting samples were analyzed by HPLC. […]

Row | solubility (physchem [1]) [mg/mL] | water absorbed by weight (Moisture sorption) | pKa (physchem [2]) | pH of slower rise representative of pK of amidine group [3] | pH of slower rise representative of pK of amine group [3] | pH of slower rise representative of pK of carboxylic acid group [3] | degradation of titration fractions by HPLC [4] | SMILES
1 | > 230 | less than one percent |  |  |  |  |  | CC(=N)NCCSC[C@](C)(N)C(=O)O.O=C(O)/C=C\C(=O)O [S-[2-[(1-Iminoethyl)amino]ethyl]-2-methyl-L-cysteine maleate]
2 |  |  | ~12.5 | ~11 | ~9 | ~2 | no degradation | CC(=N)NCCSC[C@](C)(N)C(=O)O [S-[2-[(1-Iminoethyl)amino]ethyl]-2-methyl-L-cysteine]
